From ChEMBL document CHEMBL1201862, “PubChem BioAssay data set” (2004)
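Assay format: 96-well plates, 48-hour exposure. The concentration for 50% growth inhibition is given as GI50.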 The source made the active and inactive calls. No stated cut-off is given here; in the data, active = GI50 up to about 1.1 µM and inactive = higher.

Tests used:
Experiment in all cases: DTP human tumour cell line panel, 48 h
[1] = test system: SK-MEL-5
[2] = test system: Hs-578T
[3] = test system: OVCAR-4
[4] = test system: HL-60
[5] = test system: HCC 2998
[6] = test system: COLO 205
[7] = test system: NCI-H460
[8] = test system: 786-0
[9] = test system: NCI-H522
[10] = test system: EKVX
[11] = test system: U-251
[12] = test system: HOP-62
[13] = test system: NCI-H226
[14] = test system: A498
[15] = test system: SK-OV-3
[16] = test system: DU-145
[17] = test system: RPMI-8226
[18] = test system: PC-3
[19] = test system: BT-549

Measured: GI50

O=C(O)CCC(=O)c1ccc2c(c1)C(C(=O)O)CC2 (configuration not stated)
inactive: [1] > 100 µM | [2] > 100 µM | [3] > 100 µM | [4] > 100 µM | [5] > 100 µM | [6] > 100 µM | [7] > 100 µM | [8] > 100 µM | [9] > 100 µM | [10] > 100 µM | [11] > 100 µM | [12] > 100 µM | [13] > 100 µM | [14] > 100 µM | [15] > 100 µM | [16] > 100 µM | [17] > 100 µM | [18] > 100 µM

N=C1/C(=C/c2ccccc2)C(=O)N=C2SC=NN12
inactive: [1] > 100 µM | [2] > 100 µM | [3] > 100 µM | [4] > 100 µM | [5] > 100 µM | [6] > 100 µM | [7] > 100 µM | [8] > 100 µM | [9] > 100 µM | [10] > 100 µM | [11] > 100 µM | [12] > 100 µM | [13] > 100 µM | [15] > 100 µM | [16] > 100 µM | [17] > 100 µM | [18] > 100 µM | [19] > 100 µM

Cc1c(C2CCSc3ccccc3N2)sc2ccccc12 (configuration not stated)
inactive: [1] > 100 µM | [2] > 100 µM | [3] 62.7 µM | [4] 55.5 µM | [5] 80.4 µM | [6] > 100 µM | [7] 90.2 µM | [8] > 100 µM | [9] 47 µM | [10] 30.9 µM | [11] > 100 µM | [12] > 100 µM | [13] > 100 µM | [15] > 100 µM | [16] > 100 µM | [17] > 100 µM | [18] > 100 µM | [19] > 100 µM

CC1CCN(c2nnc(Cl)cc2C(=O)c2ccccc2)CC1
inactive: [1] 16.6 µM | [2] 20 µM | [3] 29.2 µM | [4] 44.4 µM | [5] 30.5 µM | [6] 21.9 µM | [7] 29.5 µM | [8] 41.7 µM | [9] 26.7 µM | [10] 29.8 µM | [11] 31.1 µM | [12] 28.4 µM | [14] 35.7 µM | [16] 38.3 µM | [18] 20.4 µM | [19] 30.3 µM

O=S1(=O)OCCOS(=O)(=O)C1(F)Cc1ccccc1
inactive: [1] > 100 µM | [2] > 100 µM | [3] > 100 µM | [4] > 100 µM | [5] > 100 µM | [6] > 100 µM | [7] > 100 µM | [8] > 100 µM | [9] > 100 µM | [10] > 100 µM | [11] > 100 µM | [12] > 100 µM | [13] > 100 µM | [14] > 100 µM | [15] > 100 µM | [16] > 100 µM | [17] > 100 µM | [18] > 100 µM

O=C(CC(=O)n1nc(-c2ccccc2)c(/N=N/c2ccc(Cl)cc2)c1-c1ccccc1)Nc1cccc(Cl)c1
inactive: [1] > 100 µM | [2] > 100 µM | [4] 28.5 µM | [5] > 100 µM | [6] > 100 µM | [7] 34.1 µM | [8] 59.6 µM | [10] 25.3 µM | [11] 40.9 µM | [12] 38 µM | [13] 28.3 µM | [14] 34.3 µM | [17] 65.6 µM | [18] 75 µM | [19] > 100 µM

Cc1ccc(S(=O)(=O)N(CCN2C(=O)c3ccccc3C2=O)c2cc3c4c(c2)Oc2cc(N(CCN5C(=O)c6ccccc6C5=O)S(=O)(=O)c5ccc(C)cc5)cc5c2C4(C)c2c(cc(N(CCN4C(=O)c6ccccc6C4=O)S(=O)(=O)c4ccc(C)cc4)cc2O5)O3)cc1
inactive: [1] > 100 µM | [2] > 100 µM | [3] > 100 µM | [4] > 100 µM | [6] > 100 µM | [7] > 100 µM | [8] > 100 µM | [9] > 100 µM | [10] > 100 µM | [11] > 100 µM | [12] > 100 µM | [13] > 100 µM | [15] > 100 µM | [16] > 100 µM | [17] > 100 µM | [18] > 100 µM | [19] > 100 µM

O=C(c1ccccc1)c1ccc(N2C(=O)/C(=C/Cc3ccco3)N=C2c2ccccc2)c(N2C(=O)/C(=C/Cc3ccco3)N=C2c2ccccc2)c1
inactive: [1] 26.1 µM | [2] 25.8 µM | [3] 39.9 µM | [4] 15.3 µM | [5] 36.9 µM | [6] 38.6 µM | [7] 36.6 µM | [8] 45.7 µM | [10] 81.5 µM | [11] 18.8 µM | [12] 40 µM | [14] 51.5 µM | [15] 30.5 µM | [16] 30 µM | [17] 27.8 µM | [18] 39.8 µM | [19] 35.6 µM
